According to US20030055065A1, “Tricyclic amide and urea compounds useful for inhibition of G-protein function and for treatment of proliferative diseases” (priority 1993, published 2003):
Several values for one entry are separate records, joined by “and”; a condition that tells them apart may be missing. Equal entries are not always repeated. Where two headings read alike, the source gives them in different places. Marks after values point to notes of the source that are not given here.

How the values were obtained:
[1] = target: T1, farnesyl protein transferase (FPT), partially purified from rat brain (Rattus norvegicus, UniProt Q02293+Q04631); experiment: Inhibition of farnesyl protein transferase (transfer of [3H]farnesyl to Ras-CVLS); format: biochemical
T1 construct: were partially purified from rat brain by ammonium sulfate fractionation followed by Q-Sepharose
T1 sequence (Q02293 whole entry, one chain of several): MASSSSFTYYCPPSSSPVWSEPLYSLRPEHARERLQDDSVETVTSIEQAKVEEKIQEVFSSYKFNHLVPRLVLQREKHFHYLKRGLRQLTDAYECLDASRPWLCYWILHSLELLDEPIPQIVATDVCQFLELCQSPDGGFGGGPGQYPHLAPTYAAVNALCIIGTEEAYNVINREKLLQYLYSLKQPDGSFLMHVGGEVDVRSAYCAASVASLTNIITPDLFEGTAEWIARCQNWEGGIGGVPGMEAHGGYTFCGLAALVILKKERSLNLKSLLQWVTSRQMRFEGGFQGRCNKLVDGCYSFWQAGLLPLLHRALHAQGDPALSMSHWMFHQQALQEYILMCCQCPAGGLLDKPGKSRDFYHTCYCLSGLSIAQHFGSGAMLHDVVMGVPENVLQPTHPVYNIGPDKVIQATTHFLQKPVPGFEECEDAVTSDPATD
Method in brief: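 Partially purified farnesyl protein transferase with His6-tagged val12-Ha-Ras-CVLS substrate and [3H]farnesyl pyrophosphate, 30 min at room temperature. Stopped with SDS/TCA, precipitated Ras collected on GF/C filters; percent inhibition relative to DMSO vehicle control.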

[2] = target: T2, geranylgeranyl protein transferase (GGPT) I (Rattus norvegicus, UniProt P53610+Q04631); experiment: Inhibition of geranylgeranyl protein transferase I (Ras-CVLL as acceptor); format: biochemical; settings: for IC50: enzyme inhibition; for selective for FPT inhibition (over GGPT): FPT versus GGPT
T2 construct: were partially purified from rat brain by ammonium sulfate fractionation followed by Q-Sepharose
T2 sequence (P53610 whole entry, one chain of several): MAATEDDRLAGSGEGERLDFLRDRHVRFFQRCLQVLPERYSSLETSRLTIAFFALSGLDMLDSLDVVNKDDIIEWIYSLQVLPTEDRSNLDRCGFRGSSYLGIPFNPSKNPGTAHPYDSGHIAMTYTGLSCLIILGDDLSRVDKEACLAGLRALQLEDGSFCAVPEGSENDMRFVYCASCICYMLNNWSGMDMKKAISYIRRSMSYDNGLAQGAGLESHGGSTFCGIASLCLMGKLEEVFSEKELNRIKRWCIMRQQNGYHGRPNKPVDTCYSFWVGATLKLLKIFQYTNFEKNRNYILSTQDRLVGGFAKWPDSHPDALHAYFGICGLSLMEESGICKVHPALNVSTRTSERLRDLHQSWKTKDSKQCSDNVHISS
Method in brief: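 Rat brain GGPT I, partially purified by ammonium sulfate fractionation and anion exchange, was assayed with [3H]geranylgeranyl pyrophosphate as isoprenoid donor. The acceptor was E. coli-expressed His6-tagged val12-Ha-Ras ending in CVLL. The protocol otherwise matched the farnesyl protein transferase assay.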

[3] = test system: Ras-CVLS processing in COS monkey kidney cells; experiment: COS cell assay: Ras-CVLS processing (Western blot); format: cell-based; settings: COS cells, read-out: Inhibition of Ras Processing IC50
Method in brief: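 COS cells electroporated with Ras-CVLS (farnesyl transferase substrate) cDNA, with drug-containing fresh medium added at 24 h and cells examined at 48 h. TCA-precipitated cellular protein was resolved by SDS gel and immunoblotted with anti-p21 Ras monoclonal and HRP anti-rat IgG to monitor Ras processing.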

[4] = test system: Normal human HEPM fibroblasts; experiment: Cell Mat Assay: density of mat cells (mIC50); format: cell-based
Method in brief: (§1)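 Serial compound dilutions added 24 h after planting T24-BAG4 cells onto a mat of normal cells, then 14 d colony growth; monolayers glutaraldehyde-fixed and tumor cells X-Gal stained. tIC50 and mIC50 from microscope counts of colonies, cells per colony and mat cell density.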

[5] = test system: SW620 (human colon adenocarcinoma [lymph node metastasis]); experiment: In vivo anti-tumor study, SW620; parameters: species or system athymic nu/nu female mice; percent inhibition of tumor growth relative to vehicle controls: concentration or dose not given beside the values; settings: for Average % Tumor Inhibition / inhibition in vivo at 100 mg/kg: SW620 tumor, 10/wk; for inhibition in vivo at 100 mg/kg: Mus musculus; for percent inhibition of tumor growth relative to vehicle controls: s.c. tumor SW-620, BID
[6] = test system: T24-BAG4 human bladder carcinoma cells expressing an activated H-ras gene; experiment: Cell Mat Assay: tumor cell colony inhibition (tIC50); format: cell-based; settings: inhibition of tumor cell growth
Method in brief: as §1

[7] = test system: M27 (mouse Lewis lung carcinoma); experiment: In vivo anti-tumor study, M27; parameters: species or system athymic nu/nu female mice; settings: po; for Average % Tumor Inhibition: M27 tumor, 100 MPK; for percent inhibition of tumor growth relative to vehicle controls: s.c. tumor M27, BID, 1-7, ×4
Source text: In vivo Anti-tumor Studies

[8] = test system: A431 (human epidermal carcinoma); experiment: In vivo anti-tumor study, A431; parameters: species or system athymic nu/nu female mice; concentration or dose not given beside the values; settings: s.c. tumor A431, BID
[9] = test system: C-f-1 (mouse fibroblast transformed with c-fos oncogene); experiment: In vivo anti-tumor study, C-f-1; parameters: species or system athymic nu/nu female mice; concentration or dose not given beside the values; settings: s.c. tumor C-f-1, BID
[10] = Ras-CVLS farnesylation, partially purified rat brain FPT, read-out: FPT IC50
[11] = enzyme inhibition, read-out: FPT IC50

Structure (SMILES) | IC50 [1, 10] | IC50 [2] [µM] | IC50 [1, 11] [µM] | IC50 ([6]; Homo sapiens) [µM] | melting point | IC50 ([3]; Primates, COS) [µM] | IC50 ([4]; Homo sapiens, Fibroblast) [µM] | inhibition in vivo at 100 mg/kg ([5]; SW-620, po, 100 MPK, po, x4) [%] | also measured
O=C(Cc1cccnc1)N1CCC(=C2c3ccc(Cl)cc3CCc3cccnc32)CC1 [Example 2, 8-chloro-11-[1-(1-(3-pyridyl)-methylcarbonyl)-4-piperidylidene]-6,11-dihydro-5H-benzo[5,6]cyclohepta[1,2-b]-pyridine] | 0.47 µM | > 46 | 0.47 | 25 |  | 3.7 | > 50 | 1 | selective for FPT inhibition (over GGPT) [2]: at least 98 fold; inhibition at 46 µM ([2]; at 46 μM, Ras-CVLL as isoprenoid acceptor): 25%; Average % Tumor Inhibition ([7]; 14/wk, x4): 45%; percent inhibition of tumor growth relative to vehicle controls [7]: 61.2%; percent inhibition of tumor growth relative to vehicle controls ([8]; po, 1-5, ×4): 45.6% and 36.5%; inhibition in vivo at 100 mg/kg ([5]; SW-620, ip, 100 MPK, ip, x2): 0%; inhibition in vivo at 100 mg/kg ([5]; SW-620, po, 100 MPK, po, x2): 0%; percent inhibition of tumor growth relative to vehicle controls ([5]; ip, 1-5, ×4): 0%; percent inhibition of tumor growth relative to vehicle controls ([5]; po, 1-5, ×2): 46.1%; percent inhibition of tumor growth relative to vehicle controls ([5]; po, 1-5, ×4): 33.5%; percent inhibition of tumor growth relative to vehicle controls ([9]; ip, 1-5, ×2): 8%; percent inhibition of tumor growth relative to vehicle controls ([9]; po, 1-5, ×4): 9.6%
O=C(CN1C(=O)c2ccccc2C1=O)N1CCC(=C2c3ccc(Cl)cc3CCc3cccnc32)CC1 [Example 3] | 0.66 µM | > 39 | 0.66 | > 50 |  | > 10 | > 50 |  | selective for FPT inhibition (over GGPT) [2]: at least 59 fold; inhibition at 39 µM ([2]; at 39 μM, Ras-CVLL as isoprenoid acceptor): 3%; percent inhibition of tumor growth relative to vehicle controls [7]: 27.3%; percent inhibition of tumor growth relative to vehicle controls ([8]; ip, 1-5, ×4): 0%; percent inhibition of tumor growth relative to vehicle controls ([5]; ip, 1-5, ×4): 27%; percent inhibition of tumor growth relative to vehicle controls ([5]; po, 1-5, ×2): 15.8%; percent inhibition of tumor growth relative to vehicle controls ([9]; ip, 1-5, ×2): 8%; percent inhibition of tumor growth relative to vehicle controls ([9]; po, 1-5, ×4): 0%
Cc1ccc(CC(=O)N2CCC(=C3c4ccc(Cl)cc4CCc4cccnc43)CC2)cc1 [Example 47] | 1.3 µM and 1.01 µM |  |  |  |  |  |  |  | IC50 [3]: 11.1 µM; IC50 [6]: 12.5 µM; IC50 [4]: > 50 µM; Average % Tumor Inhibition ([7]; 10/wk, x3): 19%
O=C(Cc1ccncc1)N1CCN(C2c3ccc(Cl)cc3CCc3cccnc32)CC1 (centres unmarked) [Example 75] |  |  |  | 2.5 |  |  | > 50 |  | IC50 ([1]; FPT IC50, Ras-CVLS farnesylation, partially purified rat brain FPT): 0.36 µM and 0.16 µM; Average % Tumor Inhibition ([7]; 10/wk, x4): 0%; percent inhibition of tumor growth relative to vehicle controls ([8]; po, 1-6, ×4): 34.5%; percent inhibition of tumor growth relative to vehicle controls ([5]; po, 1-5, ×4): 43.4%; percent inhibition of tumor growth relative to vehicle controls ([9]; po, 1-5, ×4): 20%
O=C(C(c1ccccc1)c1ccccc1)N1CCN(C2c3ccc(Cl)cc3CCc3cccnc32)CC1 (centres unmarked) [Example 79] | 2.5 µM |  | 2.5 | 12.5 |  | 5.1 | > 50 |  | percent inhibition of tumor growth relative to vehicle controls ([8]; po, 1-6, ×4): 0%; percent inhibition of tumor growth relative to vehicle controls ([5]; po, 1-5, ×4): 26.7%; percent inhibition of tumor growth relative to vehicle controls ([9]; po, 1-5, ×4): 25%
S=C(c1ccncc1)N1CCC(=C2c3ccc(Cl)cc3CCc3cccnc32)CC1 [Example 88] | 1 µM |  |  |  |  |  |  |  | IC50 [3]: > 12 µM; IC50 [4]: > 50 µM; Average % Tumor Inhibition ([7]; 10/wk, x4): 19%; Average % Tumor Inhibition ([5]; 25 MPK, po, x4, listed as Ex. 88, 25 mg/kg): 4% and 0%; Average % Tumor Inhibition ([5]; 50 MPK, po, x4): 30%; Average % Tumor Inhibition ([5]; 100 MPK, po, x4, listed as Ex. 88, 100 mg/kg): 43.25* % and 38% and 37% and 27.4* % and 28%
CC(=O)N1CCC(C(=O)N2CCN(C3c4ccc(Cl)cc4CCc4cccnc43)CC2)CC1 (centres unmarked) [Example 192] | 1.24 µM | > 43 |  | 25 |  | 4.9 | > 50 | 29 | IC50 ([6]; listed as 192 (5.65)): 37 µM
O=C(Cc1ccncc1)N1CCC(C2c3ccc(Cl)cc3CCc3ccc[n+]([O-])c32)CC1 (centres unmarked) [Example 236] | 1.48 µM | > 45 |  | 4 | 116.7 to 117.6 °C | 3.5 | > 50 |  | 

Now from value to compound, other results behind:

IC50 [1, 10] | IC50 [2] [µM] | IC50 [1, 11] [µM] | IC50 ([6]; Homo sapiens) [µM] | melting point | Structure (SMILES) | IC50 ([3]; Primates, COS) [µM] | IC50 ([4]; Homo sapiens, Fibroblast) [µM] | inhibition in vivo at 100 mg/kg ([5]; SW-620, po, 100 MPK, po, x4) [%] | also measured
0.95 µM | > 46 |  |  |  | O=C(Nc1ccccn1)N1CCN(C2c3ccc(Cl)cc3CCc3cccnc32)CC1 (centres unmarked) [187 (6.8)] |  |  |  | IC50 [3]: 1.3 µM; IC50 [4]: > 50 µM and 50 µM; Average % Tumor Inhibition ([5]; 100 MPK, po, x4, listed as Ex. 187 (6.8), 100 mg/kg): 11% and 21%
1 µM and 0.8 µM |  |  |  |  | CN1C(=O)CC[C@H](C(=O)N2CCC(=C3c4ccc(Cl)cc4CCc4cccnc43)CC2)[C@H]1c1ccc(F)cc1 [Example 4] |  |  | 2 | 
1.7 µM | > 46 | 1.7 |  | 200 °C | O=C1CCC(C(=O)N2CCC(=C3c4ccc(Cl)cc4CCc4cccnc43)CC2)CC1 [Example 5] | 9.2 | > 50 |  | IC50 [3]: > 12 µM; IC50 [4]: 100 µM
2.3 µM | > 45 | 2.3 | 50 |  | O=C(c1ccc(O)cc1)N1CCC(=C2c3ccc(Cl)cc3CCc3cccnc32)CC1 [Example 7] |  | 100 | 0 | Average % Tumor Inhibition ([7]; 14/wk, x4): 40%; percent inhibition of tumor growth relative to vehicle controls [7]: 58.2%; percent inhibition of tumor growth relative to vehicle controls ([8]; ip, 1-5, ×4): 0%; percent inhibition of tumor growth relative to vehicle controls ([8]; po, 1-5, ×4): 29.1%; inhibition in vivo at 100 mg/kg ([5]; SW-620, po, 100 MPK, po, x2): 13%; percent inhibition of tumor growth relative to vehicle controls ([5]; ip, 1-5, ×4): 19.6%; percent inhibition of tumor growth relative to vehicle controls ([5]; po, 1-5, ×2): 48.6%; percent inhibition of tumor growth relative to vehicle controls ([5]; po, 1-5, ×4): 0%; percent inhibition of tumor growth relative to vehicle controls ([9]; ip, 1-5, ×2): 39.7%; percent inhibition of tumor growth relative to vehicle controls ([9]; po, 1-5, ×4): 39.3%
1.2 µM and 0.87 µM |  |  | 6.3 | 94.3 to 95.5 °C | O=C(Cc1cccc([N+](=O)[O-])c1)N1CCC(=C2c3ccc(Cl)cc3CCc3cccnc32)CC1 [Example 45] | 4.2 | > 50 |  | Average % Tumor Inhibition ([7]; 10/wk, x3): 0%
 |  |  |  | 81.7 to 82 °C | O=C(Cc1cccnc1)N1CCC(C2c3ccc(Cl)cc3CCc3cccnc32)CC1 (centres unmarked) [Example 82A, 4-(8-Chloro-6,11-dihydro-5H-benzo-[5,6]cyclohepta(1,2-b]pyridin-11-yl)-1-[(3-pyridinyl)acetyl]-piperidine] |  |  | 27 | 
3.5 µM and 2.7 µM |  |  | 6.3 |  | O=C(Cc1ccc(O)c(O)c1)N1CCC(=C2c3ccc(Cl)cc3CCc3cccnc32)CC1 [Example 127] |  | > 50 | 25 | Average % Tumor Inhibition ([7]; 10/wk, x3): 22%
0.16 µM | > 40 |  |  | 92 to 93 °C | O=C(Cc1cccnc1)N1CCC(=C2c3ccc(Cl)cc3CCc3cc(Br)cnc32)CC1 [Example 247] | > 3.9 | > 50 |  | IC50 ([3]; listed as 247 (5.122)): 3.5 µM
 |  |  | 18 | 133.2 to 133.4 °C | Nc1cnc2c(c1)CCc1cc(Cl)ccc1C2=C1CCN(C(=O)Cc2ccncc2)CC1 [Example 402] | > 10 | > 25 |  | IC50 ([1]; FPT IC50, enzyme inhibition): 1 µM
 | > 35 | 0.103 | > 6.25 | 105 °C (dec.) | CN1CCC(CC(=O)N2CCC(=C3c4ccc(Cl)cc4CCc4c3ncc(Br)c4Cl)CC2)CC1 [Example 413] | 1.5 | 10 |  | 
